Experimental data: patent US11680047B2, “Enhanced erythropoiesis and iron metabolism” (FibroGen, Inc., priority 2003, dated 2023)
Marks after values point to notes of the source that are not given here.

Assays:
healthy human volunteers = assay: Erythropoiesis and iron status in healthy human volunteers; type: in vivo; conditions: human subjects; for soluble transferrin receptor levels, maximum response: day 21
From the text: The effect of prolyl hydroxylase inhibition on erythropoiesis in human subjects was examined as follows. […] At various times following compound administration, blood was drawn for analysis of EPO, hemoglobin, hematocrit, red blood cell counts, soluble transferrin receptor, and serum ferritin levels.

[1] = Total serum iron levels in rats treated twice weekly for 93 days; type: in vivo, rat
Experimental: (§1) Compounds were generally administered orally by gavage or IV administration. Animals treated by oral gavage received a 4-10 ml/kg volume of either 0.5% carboxymethyl cellulose (CMC; Sigma-Aldrich, St. Louis Mo.) with or without 0.1% Polysorbate 80 (0 mg/kg/day) or varying doses of a compound of the present invention (e.g., a HIF prolyl hydroxylase inhibitor) in 0.5% CMC, with or without 0.1% Polysorbate 80, using various dosing regimens. Blood samples were collected at appropriate intervals during treatment from, e.g., tail vein (rats), or abdominal vein or cardiocentesis (mice or rats). Generally, animals were anesthetized with isoflurane and blood samples were collected into MICROTAINER serum separator tubes (Becton-Dickinson, Franklin Lakes N.J.). For measurement of serum components, the tubes were incubated at room temperature for 30 minutes, and then centrifuged at 8,000 rpm at 4° C. for 10 minutes. The serum fraction was then processed and analyzed for the presence of specific components, e.g., serum iron (assay performed by Quality Clinical Labs, Mountain View, Calif.). For determination of hematocrit, blood samples were collected into MICROTAINER EDTA-2K tubes (Becton-Dickinson); EDTA-blood was then drawn into 75 mm×1.1-1.2 mm I.D. capillary tubes (Chase Scientific Glass, Inc., Rockwood Tenn.) to approximately % length, one end of the tube was sealed with CRITOSEAL sealant (Sherwood Medical Company), and the tubes were centrifuged in a J-503M MICROHEMATOCRIT centrifuge (Jorgensen Laboratories, Inc., Loveland Colo.) at 12,000 rpm for 5 minutes. Hematocrit was read against a reader card. When indicated, complete blood count (CBC) analysis, including blood hemoglobin level, reticulocyte number, and hematocrit, was performed by Quality Clinical Labs (Mountain View, Calif.).
Male and female rats were treated twice weekly (Monday and Thursday) with various concentrations (0, 20, 60, or 150 mg/kg) of compound A for 93 days. Total serum iron levels were determined.

Hepcidin = Hepcidin mRNA expression in mouse liver (microarray); type: in vivo
Experimental: as §1
Swiss Webster male mice were treated as described above with a single dose of 0.5% CMC (Sigma-Aldrich) (0 mg/kg) or 100 mg/kg compound A. At 4, 8, 16, 24, 48, or 72 hours post-administration, animals were anesthetized, sacrificed, and tissue samples of kidney, liver, brain, lung, and heart were isolated and stored in RNALATER solution (Ambion) at −80° C. Alternatively, animals were treated to 4 consecutive daily doses of 0.5% CMC (0 mg/kg/day), 7.5 mg/ml compound A in 0.5% CMC (30 mg/kg/day), or 25 mg/ml compound A in 0.5% CMC (100 mg/kg/day). Four hours after administration of the final dose, animals were anesthetized, sacrificed, and approximately 150 mg of liver and each kidney were isolated and stored in RNALATER solution (Ambion) at −20° C.
RNA isolation was carried out using the following protocol. A section of each organ was diced, 875 μl of RLT buffer (RNEASY kit; Qiagen Inc., Valencia Calif.) was added, and the pieces were homogenized for about 20 seconds using a rotor-stator POLYTRON homogenizer (Kinematica, Inc., Cincinnati Ohio). The homogenate was micro-centrifuged for 3 minutes to pellet insoluble material, the supernatant was transferred to a new tube and RNA was isolated using an RNEASY kit (Qiagen) according to the manufacturer's instructions. The RNA was eluted into 80 μL of water and quantitated with RIBOGREEN reagent (Molecular Probes, Eugene Oreg.). The absorbance at 260 and 280 nm was measured to determine RNA purity and concentration.
Alternatively, tissue samples were diced and homogenized in TRIZOL reagent (Invitrogen Life Technologies, Carlsbad Calif.) using a rotor-stator POLYTRON homogenizer (Kinematica). Homogenates were brought to room temperature, 0.2 volumes chloroform was added, and samples were mixed vigorously. Mixtures were incubated at room temperature for several minutes and then were centrifuged at 12,000 g for 15 min at 4° C. The aqueous phase was collected and 0.5 volumes of isopropanol were added. Samples were mixed, incubated at room temperature for 10 minutes, and centrifuged for 10 min at 12,000 g at 4° C. […]

E-selectin = assay: IL-1β induced E-selectin expression in HUVEC; type: cell-based, human; conditions: 1 ng/ml IL-1β, 1 day
Experimental: To investigate the effect of HIF prolyl hydroxylase inhibition on IL-1β induced E-selectin expression, HUVECs were stimulated with 1 ng/ml IL-1β in the absence or presence of various concentrations of compound B or compound C for 1 day. E-selectin expression was then measured.

Structure (SMILES)	red blood cell count (healthy human volunteers; 20 mg/kg twice weekly or three-times per week)	soluble transferrin receptor levels, maximum response (healthy human volunteers; 2-times per week)	soluble transferrin receptor levels, maximum response (healthy human volunteers; 3-times per week)	decrease of serum ferritin levels (healthy human volunteers; oral 20 mg/kg)	Reticulocyte levels (healthy human volunteers; oral 20 mg/kg twice or three-times weekly)	hematocrit levels (healthy human volunteers; twice weekly for three weeks)	Serum Iron Female Rats (Mean +/− SD) ([1]; 20 mg/kg twice weekly)	Serum Iron Female Rats (Mean +/− SD) ([1]; 60 mg/kg twice weekly)	Serum Iron Female Rats (Mean +/− SD) ([1]; 150 mg/kg twice weekly)	Serum Iron Male Rats (Mean +/− SD) ([1]; 20 mg/kg twice weekly)	Serum Iron Male Rats (Mean +/− SD) ([1]; 60 mg/kg twice weekly)	Serum Iron Male Rats (Mean +/− SD) ([1]; 150 mg/kg twice weekly)	Hepcidin (relative mRNA levels) (Hepcidin; animal study I, multi high dose)	Hepcidin (relative mRNA levels) (Hepcidin; animal study II, multi high dose)	Hepcidin (relative mRNA levels) (Hepcidin; animal study II, multi low dose)	Hepcidin (relative mRNA levels) (Hepcidin; animal study III, 4 hour)	Hepcidin (relative mRNA levels) (Hepcidin; animal study III, 8 hour)	Hepcidin (relative mRNA levels) (Hepcidin; animal study III, 16 hour)	inhibition of IL-1β induced E-selectin expression (E-selectin)
O=C(O)CNC(=O)c1nc(Cl)c2ccccc2c1O [Compound A, [(1-Chloro-4-hydroxy-isoquinoline-3-carbonyl)-amino]-acetic acid]	increased red blood cell count in human subjects	35%	31%	approximately 46%	> 1.7 % of red blood cells	greater than 46%	505 +/− 41 * µg/dL	445 +/− 46 * µg/dL	399 ± 117 µg/dL	198 ± 64 µg/dL	357 +/− 111 * µg/dL	307 +/− 142 * µg/dL	0.275	0.703	0.129	0.672	0.305	0.119	–
O=C(O)CNC(=O)c1ncc2cc(Oc3ccccc3)ccc2c1O [Compound B, [(4-Hydroxy-7-phenoxy-isoquinoline-3-carbonyl)-amino]-acetic acid]	–	–	–	–	–	–	–	–	–	–	–	–	–	–	–	–	–	–	dose-dependent inhibition of IL-1β induced E-selectin expression
